The source of these data is patent US20060142239A1, “Potassium or sodium salt of (-)-2-(4-hydroxyphenyl)ethyl!-thio-3-'4-{4-'(methzlsulfonzl)oxy !phenoxy}phenyl!propanoic acid and their use in medicine” (priority 2003, published 2006).

The subject of one experiment is SC LS-174T tumours. Put plainly: Human LS-174T colon tumour xenografts in Nude mice, tumour growth delay. The class given is in vivo. The note with it: ZD6126 200 mg/kg IP, 5-FU 75 mg/kg IV, CPT-11 25 mg/kg IV; for MEDIAN TIME TO REACH TUMOUR SIZE OF 2 CM^3: SC LS-174T xenografts in Nude mice, weekly x3 (Days 1, 8, 15), in combinations ZD6126 2 hours after the other agent; for T - C (DAYS), tumour growth delay: difference in median time to reach 2 cm^3, treatment vs vehicle control, weekly x3. The method, then:
Human LS-174T Colon Tumour Xenografts in Nude Mice […] Mice were randomised into 6 groups of 15-18 mice per group. Group 1—control Group 2—received 3 weekly intraperitoneal (IP) injections of ZD6126 at 200 mg/kg on Days 1, 8 and 15 Group 3—received 3 weekly intravenous (IV) injections of 5-FU at 75 mg/kg on Days 1, 8 and 15 Group 4—received 3 weekly IV injections of CPT-11 alone at 25 mg/kg on Days 1, 8 and 15. Group 5—received 3 weekly IP injections of ZD6126 at 200 mg/kg on Days 1, 8 and 15 and 3 weekly IV injections of 5-FU at 75 mg/kg Days 1, 8 and 15. Group 6—received 3 weekly IP injections of ZD6126 at 200 mg/kg on Days 1, 8 and 15 and 3 weekly IV injections of CPT-11 at 25 mg/kg on Days 1, 8 and 15. In groups 5 and 6, when animals received both ZD6126 and CPT-11 or 5-FU on the same day, the ZD6126 was administered 2 hours after the CPT-11 or 5-FU. [table] For all animals, the tumour size was measured twice a week with calipers, and the tumour volume (mm^3) was estimated according to the formula: {[(Square root of Length×Width)×(Length×Width)]×0.5236}. The mice were sacrificed when tumours grew beyond 10% of bodyweight. Treatment efficacy was assessed in terms of the effects on the tumour volumes of treated mice relative to vehicle-treated mice and expressed as growth delay. Growth delay T-(C) was calculated as the difference in the median growth time of the treatment group (T) and the vehicle control group (C) to reach a tumor size of 2 cm^3.

In another experiment the test system is tumour vasculature. Conditions: reported in Proc. Am. Assoc. Cancer Res. 2000; 41: 329; cited from earlier work.

Regarding `O=c1[nH]cc(F)c(=O)[nH]1` [5-FU, 5-fluorouracil], in the experiment with SC LS-174T tumours, the “MEDIAN TIME TO REACH TUMOUR SIZE OF 2 CM^3” value is given as 14 days and the “T - C (DAYS), tumour growth delay” value was 5 days.
On the same counts, the results for `CCc1c2c(nc3ccc(OC(=O)N4CCC(N5CCCCC5)CC4)cc13)-c1cc3c(c(=O)n1C2)COC(=O)[C@]3(O)CC` [CPT-11, irinotecan] are 17 days and 8 days.
As to `COc1cc2c(c(OC)c1OC)-c1ccc(OP(=O)(O)O)cc1[C@@H](NC(C)=O)CC2` [ZD6126, (5S)-5-(acetylamino)-9,10,11-trimethoxy-6,7-dihydro-5H-dibenzo[a,c]cyclohepten-3-yl dihydrogen phosphate], in the experiment with SC LS-174T tumours, the “MEDIAN TIME TO REACH TUMOUR SIZE OF 2 CM^3” value worked out at 17 days and the “T - C (DAYS), tumour growth delay” value amounted to 8 days. In the experiment on tumour vasculature, the “effect on tumour vasculature” value is “selectively disrupts tumour vasculature leading to vessel occlusion and extensive tumour necrosis”.
